{"source": "patent US20260198495A1", "about": "“BINARY INSECTICIDE COMPOSITION AND USE THEREOF” (SHENYANG SINOCHEM AGROCHEMICALS R & D CO., LTD., priority 2022, published 2026)", "assay_type_in_all_cases": "in vivo", "key": {"Empoasca pirisuga": {"tested_on": "Empoasca pirisuga", "test": "Field efficacy trial of I-72 and Beauveria bassiana in a tea garden, Example 88, Table 88", "conditions": "spraying", "description": "This trial was performed in a tea garden in Yuhang District, Hangzhou. The spraying method was used for pesticide application. The investigation method was to take samples at 5 points, with 2 fixed plants at each point. A total of 10 plants were investigated in each plot, and the trial was replicated four times. The number of Empoasca vitis nymphs on the back of 100 tender leaves in each plot was randomly investigated. The amount of the pesticide solution sprayed was 75 L per mu. The base number was investigated before the pesticide application, and the number of live Empoasca pirisuga in each treatment sample point was investigated 3, 7 and 14 days after the pesticide application. The calculation method for the efficacy of the test pesticides was the same as that in Example 38.\nTest pesticides: A: wettable powder of Beauveria bassiana with 40 billion spores/gram (Jiangxi Tianren Ecology Co., Ltd.); and B: compound I-72 (dissolved in acetone, 0.1% Tween 80 was added, and a 10% stock solution was prepared for use)."}, "[1]": {"tested_on": "3rd-instar larvae of Plutella xylostella", "test": "Joint toxicity of I-72 + metaflumizone, airbrush spraying, Example 4, Table 4", "conditions": "Plutella xylostella, foliar, airbrush spraying of cabbage leaf disks, 72 h, A = compound I-72, B = metaflumizone, read-out: LC50", "description": "Test target: 3rd-instar larvae of Plutella xylostella, a sensitive strain reared indoors.\nTest conditions: temperature: 25-27° C., humidity: RH 60%, and illumination: L:D=14:10\nExperimental method: the airbrush spraying method was adopted. The cabbage cultivated in the greenhouse was taken and made into leaf disks with a diameter of 3 cm. After uniform spraying treatment with an airbrush manual sprayer, the leaf disks were placed in a 9-cm Petri dish lined with filter paper. After natural air-drying in the shade, the standard test insects were introduced, and the number of dead and live insects was investigated 72 h later.\nThe preparation of the pesticide solution and the evaluation method (Sun Y-P) for the joint action type of the mixture were the same as those in Example 1."}, "[2]": {"tested_on": "Frankliniella occidentalis nymphs", "test": "whole plant or invertebrate", "conditions": "foliar, A = compound I-72, B = dinotefuran, kidney bean leaf dipping, 48 hours, read-out: LC50", "description": "Test target: Frankliniella occidentalis nymphs.\n(§1) Preparation of the pesticide solution: according to different test requirements, the test samples were accurately weighed respectively with an electronic analytical balance. The technical pesticides were dissolved in acetone, and then diluted with 0.1% Tween 80 water into a series of pesticide solutions with a certain concentration gradient according to the experimental design dosage.\nExperimental method: first, kidney bean leaves were selected and dipped in the prepared pesticide solution for 10 s in the order from low dosage to high dosage according to the experimental design. After natural air-drying in the shade, they were placed in a 9-cm-diameter Petri dish with filter paper, and uniform and healthy test insects were introduced, with 20-30 insects for each treatment and 3 replicates for each treatment. In addition, a blank control was set up.\n(§2) The treated test materials were placed in an observation room, and the temperature, humidity and illumination of the observation room could be adjusted as needed. The number of dead and live insects was investigated 48 hours later. […] Then, the co-toxicity coefficient of each ratio was calculated using the Sun Y-P method to evaluate the mixing effect (the same as in Example 1)."}, "[3]": {"tested_on": "adult Tetranychus cinnabarinus (Boisduval)", "test": "Joint toxicity of I-72 + pyridaben, Example 84, Table 84", "conditions": "A = compound I72, B = pyridaben, potted-seedling spraying, 72 hours, read-out: LC50", "description": "Test target: adult Tetranychus cinnabarinus (Boisduval), a sensitive strain reared indoors.\nas §1\nExperimental method: the activity of the mixture against the adult Tetranychus cinnabarinus (Boisduval) was determined by adopting the potted-seedling spraying method. First, the adult Tetranychus cinnabarinus of uniform size were transferred onto the leaves of kidney bean seedlings at the stage when the first pair of true leaves was fully expanded. After the adult mites had stabilized, the base number was counted. Then, the uniform spraying was performed with the pesticide solution in the order from low to high dose according to the experimental design, with 1.5 mL for each seedling and 3 replicates for each treatment. […]\nas §2, with “needed.” for “needed. The number of dead and live insects was investigated 48 hours later.”, “effect,” for “effect (the same”, “1.” for “1).”"}, "[4]": {"tested_on": "adult Phyllotreta vittuta Fabr.", "test": "Joint toxicity of I-72 + cyantraniliprole, Example 63, Table 63", "conditions": "A = compound I-72, B = cyantraniliprole; potted cabbage seedling spraying; 72 hours; read-out: LC50", "description": "Test target: adult Phyllotreta vittuta Fabr.\nas §1\nExperimental method: first, uniform and consistent potted cabbage seedlings were selected. Then, uniform spraying was performed with the pesticide solution in the order from low dosage to high dosage according to the experimental design. After air-drying in the shade, adult flea beetles were transferred onto the treated cabbage seedlings, and then glass covers were put on them, with about 30-40 adult flea beetles on each seedling and 3 replicates for each treatment. In addition, a blank control was set up.\nas §2, with “72” for “48”"}}}
{"smiles": "CN(C(=O)c1ccc2c(c1)OC(F)(F)O2)c1cccc(C(=O)Nc2c(Br)cc(C(F)(C(F)(F)F)C(F)(F)F)cc2OC(F)F)c1F", "note": "[Compound I-72]", "values": [{"measurement": "Control efficacy 3 days after pesticide application", "setting": "Empoasca pirisuga; dose 15 ml", "result": 57.0, "unit": "%"}, {"measurement": "Control efficacy 7 days after pesticide application", "setting": "Empoasca pirisuga; dose 15 ml", "result": 75.8, "unit": "%"}, {"measurement": "Control efficacy 14 days after pesticide application", "setting": "Empoasca pirisuga; dose 15 ml", "result": 74.2, "unit": "%"}, {"measurement": "Control efficacy 3 days after pesticide application", "setting": "Empoasca pirisuga; dose 30 ml", "result": 57.5, "unit": "%"}, {"measurement": "Control efficacy 7 days after pesticide application", "setting": "Empoasca pirisuga; dose 30 ml", "result": 77.7, "unit": "%"}, {"measurement": "Control efficacy 14 days after pesticide application", "setting": "Empoasca pirisuga; dose 30 ml", "result": 79.3, "unit": "%"}, {"measurement": "Control efficacy 3 days after pesticide application", "setting": "Empoasca pirisuga; dose 45 ml", "result": 62.5, "unit": "%"}, {"measurement": "Control efficacy 7 days after pesticide application", "setting": "Empoasca pirisuga; dose 45 ml", "result": 78.1, "unit": "%"}, {"measurement": "Control efficacy 14 days after pesticide application", "setting": "Empoasca pirisuga; dose 45 ml", "result": 78.9, "unit": "%"}, {"measurement": "LC50", "setting": "[1]", "result": 0.0867, "unit": "µg/mL"}, {"measurement": "LC50", "setting": "[2]", "result": 2.41, "unit": "µg/mL"}, {"measurement": "LC50", "setting": "[3]", "result": 33.5, "unit": "µg/mL"}, {"measurement": "LC50", "setting": "[4]", "result": 1.16, "unit": "µg/mL"}]}
